Experimental data as given in patent publication US20100305036A1, “COMBINATION OF PROTEIN TYROSINE PHOSPHATASE INHIBITORS AND HUMAN GROWTH HORMONE FOR THE TREATMENT OF MUSCLE ATROPHY AND RELATED DISORDERS” (priority 2007, published 2010).

Experiments:
C2C12 myotubes = test: C2C12 myotube diameter; type: cell-based
From the text: C2C12 cells can be obtained from the American Type Tissue Culture Bank and propagated in standard growth media containing 10% horse serum. When cells reached 70% confluency the media is changed to differentiation media containing 2% horse serum. Three days after start of differentiation multinucleated myotubes should be present, with visible striations, indicating differentiation. hGH can be used as a positive control for activating the IGF-1 receptor, or alternatively, combined with a PTP1B inhibitor to assess synergistic or additive effects. Consequently, PTP1B inhibitors and/or hGH can be added to the media for various times.
Myotube Diameter Myotube diameter can be assessed 24 hours after addition of PTP1B inhibitor and/or hGH to myotube media. Cells are washed in saline and fixed in gluteraldehyde. Images can be obtained on an inverted microscope using the green fluorescent channel to visualize the auto-fluorescence induced by the gluteraldehyde fixation. Images are printed out at standard magnification and the sixty largest myotubes measured at their largest diameter (as previously published). The fifty largest myotubes in each group can be statistically compared using the Kruskal-Wallis One Way Analysis on Ranks. Differences are considered significant if p<0.05 and designated by an asterisk in FIG. 1. […]

AKT phosphorylation = conditions: hGH treatment of C2C12; cited from earlier work

Substance	C2C12 myotube diameter (C2C12 myotubes; hGH alone)	AKT phosphorylation (AKT phosphorylation)	myotube hypertrophy (C2C12 myotubes; IGF1 alone added to C2C12 myotubes media at 10 ng/ml)
hGH: Human Growth Hormone, can be purchased from Bachem H-3148	significant increase	cause AKT phosphorylation	
IGF1: human insulin-like growth factor1 or IGF1, however formulated or stabilized			significantly hypertrophied
